Values quoted from earlier work as cited in patent US20050137163A1, “Modified hyaluronic acid for use in musculoskeletal tissue repair” (priority 2003, published 2005).

Settings: investigated previously as an antimicrobial agent

concentration shown to be safe: up to 0.1 % weight
Substance: benzalconium chloride [BzCl]
